# Test results reported in ChEMBL document CHEMBL5131463, “Target-Based Virtual Screening and LC/MS-Guided Isolation Procedure for Identifying Phloroglucinol-Terpenoid Inhibitors of SARS-CoV-2” (J Nat Prod, 2022).
# What was measured:
# SARS-CoV-2 [1] = experiment: (§1) Antiviral activity against SARS-Cov-2 infected in african green monkey Vero E6 cells assessed as inhibition of viral replication at 10 uM pretreated with compound for 1 hr followed by viral infection for 2 hrs measured after 24 hrs post infection by qRt-PCR analysis relative to control; assay type: functional; conditions: Severe acute respiratory syndrome coronavirus 2, Vero C1008, time 27 hrs
# SARS-CoV-2 [2] = experiment: Antiviral activity against SARS-Cov-2 infected in african green monkey Vero E6 cells assessed as inhibition of viral replication pretreated with compound for 1 hr followed by viral infection for 2 hrs measured after 24 hrs post infection by qRt-PCR analysis; assay type: functional, organism-based; conditions: Severe acute respiratory syndrome coronavirus 2, Vero C1008
# SARS-CoV-2 [3] = experiment: Antiviral activity against SARS-Cov-2 infected in african green monkey Vero E6 cells assessed as inhibition of viral replication pretreated with compound for 1 hr followed by viral infection for 2 hrs measured after 24 hrs post infection in presence of wallichins D by qRt-PCR analysis; assay type: functional, organism-based; conditions: Severe acute respiratory syndrome coronavirus 2, Vero C1008
# [4] = Cytotoxicity against African green monkey Vero E6 cells by CCK-8 assay; assay type: toxicity, cell-based, Vero C1008; conditions: chlorocebus sabaeus
# [5] = Cytotoxicity against African green monkey Vero E6 cells in presence of wallichins D by CCK-8 assay; assay type: toxicity, cell-based, Vero C1008; conditions: chlorocebus sabaeus
# [6] = Selectivity index, ratio for CC50 of African green monkey Vero E6 cells to EC50 for SARS-Cov-2 infected in african monkey Vero E6 cells; assay type: toxicity, Vero C1008; conditions: read-out: Selectivity Index
# [7] = Selectivity index, ratio of CC50 for African green monkey Vero cells in presence of wallichins D to EC50 for SARS-Cov-2 infected in african green monkey Vero E6 cells assessed as inhibition of viral replication in presence of wallichins D; assay type: toxicity, Vero C1008; conditions: read-out: Selectivity Index
# SARS-CoV-2 [8] = experiment: Antiviral activity against SARS-Cov-2 infected in human Calu-3 cells assessed as inhibition of viral replication pretreated with compound for 1 hr followed by viral infection for 2 hrs measured after 24 hrs post infection by qRt-PCR analysis; assay type: functional, organism-based; conditions: Severe acute respiratory syndrome coronavirus 2, Calu-3
# SARS-CoV-2 [9] = experiment: Antiviral activity against SARS-Cov-2 infected in human Calu-3 cells assessed as inhibition of viral replication pretreated with compound for 1 hr followed by viral infection for 2 hrs measured after 24 hrs post infection in presence of wallichins D by qRt-PCR analysis; assay type: functional, organism-based; conditions: Severe acute respiratory syndrome coronavirus 2, Calu-3
# [10] = Cytotoxicity against human Calu-3 cells by CCK-8 assay; assay type: toxicity, cell-based
# [11] = Cytotoxicity against human Calu-3 cells in presence of wallichins D by CCK-8 assay; assay type: toxicity, cell-based
# [12] = target: T1, Replicase polyprotein 1ab (Severe acute respiratory syndrome coronavirus 2, UniProt P0DTD1); experiment: Binding affinity to SARS-CoV-2 3CL protease at 1.875 to 50 uM by SPR assay
# [13] = target: T1, Replicase polyprotein 1ab; experiment: Binding affinity to SARS-CoV-2 3CL protease at 1.875 to 50 uM in presence of wallichins D by SPR assay
# [14] = target: T1, Replicase polyprotein 1ab; experiment: Inhibition of SARS-CoV-2 3CL protease using MCA-AVLQSGFR-Lys(Dnp)-Lys-NH2 as flurogenic substrate pre-incubated with compound for 10 mins followed by substrate addition measured after 10 mins by FRET assay
# [15] = target: T1, Replicase polyprotein 1ab; experiment: Inhibition of SARS-CoV-2 3CL protease using MCA-AVLQSGFR-Lys(Dnp)-Lys-NH2 as flurogenic substrate pre-incubated with compound for 10 mins followed by substrate addition measured after 10 mins in presence of wallichins D by FRET assay
# Spike glycoprotein [16] = target: T2, Spike glycoprotein (Severe acute respiratory syndrome coronavirus 2, UniProt P0DTC2); experiment: Binding affinity to SARS-CoV-2 Spike glycoprotein receptor-binding domain at 1.875 to 50 uM by SPR assay
# SARS-CoV-2 [17] = experiment: Antiviral activity against SARS CoV-2 VSV-delG pseudotype infected in african green monkey Vero E6 at 100 uM measured after 15 hrs post infection relative to control; assay type: functional; conditions: Severe acute respiratory syndrome coronavirus 2, Vero C1008
# SARS-CoV-2 [18] = experiment: as §1, with “post infection in presence of wallichins D by qRt-PCR” for “post infection by qRt-PCR”; assay type: functional; conditions: Severe acute respiratory syndrome coronavirus 2, Vero C1008, time 27 hrs
# Spike glycoprotein [19] = target: T2, Spike glycoprotein; experiment: Binding affinity to SARS-CoV-2 Spike glycoprotein receptor-binding domain at 1.875 to 50 uM in presence of wallichins D by SPR assay
# SARS-CoV-2 [20] = experiment: Antiviral activity against SARS-Cov-2 infected in african green monkey Vero E6 cells assessed as inhibition of viral replication pretreated with compound for 1 hr followed by viral infection for 2 hrs measured after 24 hrs post infection in presence of wallichins C by qRt-PCR analysis; assay type: functional, organism-based; conditions: Severe acute respiratory syndrome coronavirus 2, Vero C1008
# [21] = Cytotoxicity against African green monkey Vero E6 cells in presence of wallichins C by CCK-8 assay; assay type: toxicity, cell-based, Vero C1008; conditions: chlorocebus sabaeus
# [22] = Selectivity index, ratio of CC50 for African green monkey Vero cells in presence of […] to EC50 for SARS-Cov-2 infected in african green monkey Vero E6 cells assessed as inhibition of viral replication in presence of wallichins C; assay type: toxicity, Vero C1008; conditions: read-out: Selectivity Index
# SARS-CoV-2 [23] = experiment: Antiviral activity against SARS-Cov-2 infected in human Calu-3 cells assessed as inhibition of viral replication pretreated with compound for 1 hr followed by viral infection for 2 hrs measured after 24 hrs post infection in presence of wallichins C by qRt-PCR analysis; assay type: functional, organism-based; conditions: Severe acute respiratory syndrome coronavirus 2, Calu-3
# [24] = Cytotoxicity against human Calu-3 cells in presence of wallichins C by CCK-8 assay; assay type: toxicity, cell-based
# [25] = target: T1, Replicase polyprotein 1ab; experiment: Binding affinity to SARS-CoV-2 3CL protease at 1.875 to 50 uM in presence of wallichins C by SPR assay
# [26] = target: T1, Replicase polyprotein 1ab; experiment: Inhibition of SARS-CoV-2 3CL protease using MCA-AVLQSGFR-Lys(Dnp)-Lys-NH2 as flurogenic substrate pre-incubated with compound for 10 mins followed by substrate addition measured after 10 mins in presence of wallichins C by FRET assay
# SARS-CoV-2 [27] = experiment: as §1, with “post infection in presence of wallichins C by qRt-PCR” for “post infection by qRt-PCR”; assay type: functional; conditions: Severe acute respiratory syndrome coronavirus 2, Vero C1008, time 27 hrs
# Spike glycoprotein [28] = target: T2, Spike glycoprotein; experiment: Binding affinity to SARS-CoV-2 Spike glycoprotein receptor-binding domain at 1.875 to 50 uM in presence of wallichins C by SPR assay
compound,measurement,setting,value
C=C1CC[C@H]2[C@@](C)(CCC[C@]2(C)C(=O)O)[C@@H]1C/C=C(\C)[C@H]1CCC2=C(O1)C(C)(C)C(O)=C(C(C)=O)C2=O,inhibition at 10 µM,SARS-CoV-2 [1],51.7%
C=C1CC[C@H]2[C@@](C)(CCC[C@]2(C)C(=O)O)[C@@H]1C/C=C(\C)[C@@H]1CCc2c(O)c(CC3C(=O)C(C(C)=O)=C(O)C(C)(C)C3O)c(O)c(C(=O)CCC)c2O1 (some centres not stated),EC50,SARS-CoV-2 [2],4.5 µM
same,EC50,SARS-CoV-2 [3],6.8 µM
same,CC50,[4],> 140 µM
same,CC50,[5],> 140 µM
same,selectivity ratio,[6],> 35
same,selectivity ratio,[7],> 27
same,EC50,SARS-CoV-2 [8],20.2 µM
same,EC50,SARS-CoV-2 [9],24.8 µM
same,CC50,[10],98.6 µM
same,CC50,[11],72.4 µM
same,Kd,[12],16.6 µM
same,Kd,[13],12 µM
same,IC50,[14],7.5 µM
same,IC50,[15],5.6 µM
same,Kd,Spike glycoprotein [16],91.7 µM
same,inhibition in vivo at 100 µM,SARS-CoV-2 [17],< 50%
same,inhibition at 10 µM,SARS-CoV-2 [18],87.7%
same,Kd,Spike glycoprotein [19],64.7 µM
C=C1CC[C@H]2[C@@](C)(CCC[C@]2(C)C(=O)O)[C@@H]1C/C=C(\C)[C@H]1CCc2c(O)c(CC3C(=O)C(C(C)=O)=C(O)C(C)(C)C3O)c(O)c(C(=O)CCC)c2O1 (some centres not stated),EC50,SARS-CoV-2 [2],12.1 µM
same,EC50,SARS-CoV-2 [20],6.8 µM
same,CC50,[4],> 140 µM
same,CC50,[21],> 140 µM
same,selectivity ratio,[6],> 11
same,selectivity ratio,[22],> 27
same,EC50,SARS-CoV-2 [8],30 µM
same,EC50,SARS-CoV-2 [23],24.8 µM
same,CC50,[10],64.3 µM
same,CC50,[24],72.4 µM
same,Kd,[12],14.3 µM
same,Kd,[25],12 µM
same,IC50,[14],8.1 µM
same,IC50,[26],5.6 µM
same,Kd,Spike glycoprotein [16],67.9 µM
same,inhibition in vivo at 100 µM,SARS-CoV-2 [17],< 50%
same,inhibition at 10 µM,SARS-CoV-2 [27],87.7%
same,Kd,Spike glycoprotein [28],64.7 µM
